In US7022733B2, “Substituted 2-phenyl benzofurans as estrogenic agents” (Wyeth, priority 2001, dated 2006):

What was measured:
[1] = test system: metallothionein-II mRNA in Saos-2 cells; test: Regulation of metallothionein-II mRNA in Saos-2 cells; format: cell-based; details: Homo sapiens

Oc1ccc(-c2cc3cc(O)ccc3o2)c(-c2ccccc2)c1 [Example 103, 2-(5-Hydroxy-biphenyl-2-yl)-benzofuran-5-ol]
fold induction at 1 µM [1]: 9

Oc1ccc(-c2cc(O)ccc2-c2cc3cc(O)ccc3o2)cc1 [Example 105, 6-(5-Hydroxy-benzofuran-2-yl)-biphenyl-3,4′-diol]
melting point: 238 to 239 °C
